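Exposure lasted 48 hours, with cells grown in 96-well plates and compounds tested at five concentrations. Abbreviation: GI50, concentration required for 50% inhibition of growth. TGI: total growth inhibition.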
Experiments:
Assay in all cases: NCI tumour cell line growth inhibition, 48 h
NCI-H226 lung = system: NCI-H226 lung
BT-549 breast = system: BT-549 breast
CAKI-1 renal = system: CAKI-1 renal
NCI-H460 lung = system: NCI-H460 lung
K-562 leukemia = system: K-562 leukemia
SF-268 CNS = system: SF-268 CNS
UACC-257 melanoma = system: UACC-257 melanoma
SN12C renal = system: SN12C renal
PC-3 prostate = system: PC-3 prostate
SK-MEL-2 melanoma = system: SK-MEL-2 melanoma
KM12 colon = system: KM12 colon
HT29 colon = system: HT29 colon
SF-539 CNS = system: SF-539 CNS
MOLT-4 leukemia = system: MOLT-4 leukemia
HCT-116 colon = system: HCT-116 colon
TK-10 renal = system: TK-10 renal
HOP-62 NSCLC = system: HOP-62 NSCLC
U251 CNS = system: U251 CNS
SW-620 colon = system: SW-620 colon
COLO 205 colon = system: COLO 205 colon
OVCAR-4 ovarian = system: OVCAR-4 ovarian
HCC-2998 colon = system: HCC-2998 colon
SK-OV-3 ovarian = system: SK-OV-3 ovarian
EKVX NSCLC = system: EKVX NSCLC
MDA-MB-435 = system: MDA-MB-435
HL-60(TB) leukemia = system: HL-60(TB) leukemia
NCI/ADR-RES ovarian = system: NCI/ADR-RES ovarian
786-0 renal = system: 786-0 renal
NCI-H522 lung = system: NCI-H522 lung
SNB-75 CNS = system: SNB-75 CNS
HS 578T breast = system: HS 578T breast
HCT-15 colon = system: HCT-15 colon
NCI-H23 lung = system: NCI-H23 lung
SK-MEL-28 melanoma = system: SK-MEL-28 melanoma
SK-MEL-5 melanoma = system: SK-MEL-5 melanoma
OVCAR-5 ovarian = system: OVCAR-5 ovarian
UO-31 renal = system: UO-31 renal
MCF7 breast = system: MCF7 breast
RXF 393 renal = system: RXF 393 renal
MALME-3M melanoma = system: MALME-3M melanoma
A549 NSCLC = system: A549 NSCLC
IGROV1 ovarian = system: IGROV1 ovarian
M14 melanoma = system: M14 melanoma
DU-145 prostate = system: DU-145 prostate
MDA-MB-231 breast = system: MDA-MB-231 breast
T-47D breast = system: T-47D breast
OVCAR-8 ovarian = system: OVCAR-8 ovarian
SNB-19 CNS = system: SNB-19 CNS
A498 renal = system: A498 renal
UACC-62 melanoma = system: UACC-62 melanoma
SR leukemia = system: SR leukemia
HOP-92 NSCLC = system: HOP-92 NSCLC
CCRF-CEM leukemia = system: CCRF-CEM leukemia

Compound: C#CCNC1CCC(c2csc(C#C)n2)=C1C (stereo unspecified)
- GI50 (NCI-H226 lung): 11.4 µM
- TGI (NCI-H226 lung): > 100 µM
- GI50 (BT-549 breast): 1.8 µM
- TGI (BT-549 breast): 3.58 µM
- GI50 (CAKI-1 renal): 2.11 µM
- TGI (CAKI-1 renal): 11.5 µM
- GI50 (NCI-H460 lung): 4.65 µM
- TGI (NCI-H460 lung): > 100 µM
- GI50 (K-562 leukemia): 3.95 µM
- TGI (K-562 leukemia): > 100 µM
- GI50 (SF-268 CNS): 2.59 µM
- TGI (SF-268 CNS): 8.27 µM
- GI50 (UACC-257 melanoma): 32.1 µM
- TGI (UACC-257 melanoma): > 100 µM
- GI50 (SN12C renal): 3.94 µM
- TGI (SN12C renal): > 100 µM
- GI50 (PC-3 prostate): 3.79 µM
- TGI (PC-3 prostate): > 100 µM
- GI50 (SK-MEL-2 melanoma): 24.8 µM
- TGI (SK-MEL-2 melanoma): > 100 µM
- GI50 (KM12 colon): 9.09 µM
- TGI (KM12 colon): > 100 µM
- GI50 (HT29 colon): 2.88 µM
- TGI (HT29 colon): 10.3 µM
- GI50 (SF-539 CNS): 1.75 µM
- TGI (SF-539 CNS): 3.28 µM
- GI50 (MOLT-4 leukemia): 5.32 µM
- TGI (MOLT-4 leukemia): 83.8 µM
- GI50 (HCT-116 colon): 4.79 µM
- TGI (HCT-116 colon): 70.1 µM
- GI50 (TK-10 renal): > 100 µM
- TGI (TK-10 renal): > 100 µM
- GI50 (HOP-62 NSCLC): 1.89 µM
- TGI (HOP-62 NSCLC): 4.98 µM
- GI50 (U251 CNS): 2.3 µM
- TGI (U251 CNS): 6 µM
- GI50 (SW-620 colon): 8 µM
- TGI (SW-620 colon): 27.8 µM
- GI50 (COLO 205 colon): 17.1 µM
- TGI (COLO 205 colon): 39.1 µM
- GI50 (OVCAR-4 ovarian): 23.5 µM
- TGI (OVCAR-4 ovarian): > 100 µM
- GI50 (HCC-2998 colon): 13.3 µM
- TGI (HCC-2998 colon): 28.6 µM
- GI50 (SK-OV-3 ovarian): 2.57 µM
- TGI (SK-OV-3 ovarian): 7.41 µM
- GI50 (EKVX NSCLC): 2.51 µM
- TGI (EKVX NSCLC): 46.9 µM
- GI50 (MDA-MB-435): 16 µM
- TGI (MDA-MB-435): 67 µM
- GI50 (HL-60(TB) leukemia): 2.3 µM
- TGI (HL-60(TB) leukemia): 5.29 µM
- GI50 (NCI/ADR-RES ovarian): 6.11 µM
- TGI (NCI/ADR-RES ovarian): > 100 µM
- GI50 (786-0 renal): 0.195 µM
- TGI (786-0 renal): 0.368 µM
- GI50 (NCI-H522 lung): 1.83 µM
- TGI (NCI-H522 lung): 3.85 µM
- GI50 (SNB-75 CNS): 1.05 µM
- TGI (SNB-75 CNS): 2.24 µM
- GI50 (HS 578T breast): 2.99 µM
- TGI (HS 578T breast): 36.6 µM
- GI50 (HCT-15 colon): 6.66 µM
- TGI (HCT-15 colon): 22.7 µM
- GI50 (NCI-H23 lung): 0.469 µM
- TGI (NCI-H23 lung): 1.87 µM
- GI50 (SK-MEL-28 melanoma): 25.1 µM
- TGI (SK-MEL-28 melanoma): > 100 µM
- GI50 (SK-MEL-5 melanoma): 7.98 µM
- TGI (SK-MEL-5 melanoma): 24.2 µM
- GI50 (OVCAR-5 ovarian): 4.77 µM
- TGI (OVCAR-5 ovarian): > 100 µM
- GI50 (UO-31 renal): 0.136 µM
- TGI (UO-31 renal): 0.306 µM
- GI50 (MCF7 breast): 3.41 µM
- TGI (MCF7 breast): 18.3 µM
- GI50 (RXF 393 renal): 2.66 µM
- TGI (RXF 393 renal): 9.49 µM
- GI50 (MALME-3M melanoma): 1.68 µM
- TGI (MALME-3M melanoma): 3.37 µM
- GI50 (A549 NSCLC): 10.3 µM
- TGI (A549 NSCLC): > 100 µM
- GI50 (IGROV1 ovarian): 0.183 µM
- TGI (IGROV1 ovarian): 0.391 µM
- GI50 (M14 melanoma): 4.22 µM
- TGI (M14 melanoma): 90.6 µM
- GI50 (DU-145 prostate): 5.97 µM
- TGI (DU-145 prostate): > 100 µM
- GI50 (MDA-MB-231 breast): 1.56 µM
- TGI (MDA-MB-231 breast): 3.98 µM
- GI50 (T-47D breast): 3.88 µM
- TGI (T-47D breast): > 100 µM
- GI50 (OVCAR-8 ovarian): 3.06 µM
- TGI (OVCAR-8 ovarian): > 100 µM
- GI50 (SNB-19 CNS): 4.33 µM
- TGI (SNB-19 CNS): > 100 µM
- GI50 (A498 renal): 3.9 µM
- TGI (A498 renal): 17.6 µM
- GI50 (UACC-62 melanoma): 9.74 µM
- TGI (UACC-62 melanoma): > 100 µM
- GI50 (SR leukemia): 1.3 µM
- TGI (SR leukemia): 8.24 µM
- GI50 (HOP-92 NSCLC): 1.21 µM
- TGI (HOP-92 NSCLC): 2.91 µM
- GI50 (CCRF-CEM leukemia): 0.922 µM
- TGI (CCRF-CEM leukemia): 4.94 µM
